{
  "source": "patent US20200215051A1",
  "about": "“NEBULIZATION COMPOSITION COMPRISING TIOTROPIUM AND INDACATEROL” (GLENMARK SPECIALTY S.A., priority 2019, published 2020)",
  "origin": "cited, not measured here",
  "conditions": "water",
  "data": [
    {"smiles": "CCc1cc2c(cc1CC)CC(NC[C@H](O)c1ccc(O)c3[nH]c(=O)ccc13)C2", "note": "[Indacaterol, 5-[(1R)-2-[(5,6-diethyl-2,3-dihydro-1H-inden-2-yl)amino]-1-hydroxyethyl]-8-hydroxy-1H-quinolin-2-one]", "values": [
      {"measurement": "aqueous solubility", "result": "very slightly soluble in water"}
    ]}
  ]
}
